# Target: T1, GlyT1 (Homo sapiens, UniProt P48067)
# T1 construct: expressed in transfected cells
# T1 sequence (P48067 1-706): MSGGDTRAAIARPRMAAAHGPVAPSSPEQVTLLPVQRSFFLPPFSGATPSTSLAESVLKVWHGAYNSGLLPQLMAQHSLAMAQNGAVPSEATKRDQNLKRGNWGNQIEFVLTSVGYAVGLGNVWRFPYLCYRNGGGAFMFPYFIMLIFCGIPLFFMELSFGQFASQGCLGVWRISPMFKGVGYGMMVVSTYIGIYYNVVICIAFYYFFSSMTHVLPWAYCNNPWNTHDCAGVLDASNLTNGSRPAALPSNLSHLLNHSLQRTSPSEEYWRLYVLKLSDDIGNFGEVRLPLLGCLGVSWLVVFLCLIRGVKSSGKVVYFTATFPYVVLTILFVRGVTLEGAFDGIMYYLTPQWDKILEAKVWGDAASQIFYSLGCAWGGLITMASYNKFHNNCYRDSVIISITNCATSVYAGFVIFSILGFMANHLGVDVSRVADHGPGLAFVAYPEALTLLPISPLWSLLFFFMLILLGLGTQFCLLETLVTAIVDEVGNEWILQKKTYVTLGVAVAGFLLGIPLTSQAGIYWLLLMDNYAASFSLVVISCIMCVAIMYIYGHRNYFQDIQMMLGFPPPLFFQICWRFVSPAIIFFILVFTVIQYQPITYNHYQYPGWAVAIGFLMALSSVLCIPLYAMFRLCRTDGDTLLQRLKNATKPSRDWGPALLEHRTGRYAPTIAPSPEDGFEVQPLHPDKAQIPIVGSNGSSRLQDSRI
# Test: Glycine Transporter 1 (GlyT1) uptake assay, scintillation proximity assay of [14C]-glycine uptake
# Format: cell-based
# Details: SPA, four parameter logistic fit, read-out: GlyT1 (pIC50) (converted)
# Method in brief: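 [14C]-glycine uptake read by scintillation proximity on a plate counter. IC50 from four-parameter logistic fit of dose-response data.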
smiles,measurement,value
"CCS(=O)(=O)c1ccc(O[C@@H](C)C(F)(F)F)c(C(=O)N2Cc3cn(-c4cc(F)ccc4F)nc3C2)c1 [Example 125, 2-(2 5-Difluorophenyl)-5-[5-(ethanesulfonyl)-2-{[(2S)-1 1 1-trifluoropropan-2-yl]oxy}benzoyl]-2H 4H 5H 6H-pyrrolo[3,4-c]pyrazole]",IC50,< 100 nM
"CCS(=O)(=O)c1ccc(O[C@@H](C)C(F)(F)F)c(C(=O)N2Cc3cn(-c4cc(C)ccc4F)nc3C2)c1 [Example 126, 5-[5-(Ethanesulfonyl)-2-{[(2S)-1 1 1-trifluoropropan-2-yl]oxy}benzoyl]-2-(2-fluoro-5-methylphenyl)-2H 4H 5H 6H-pyrrolo[3,4-c]pyrazole]",IC50,< 100 nM
"CCS(=O)(=O)c1ccc(N2CCC(F)(F)CC2)c(C(=O)N2Cc3cn(-c4cc(F)ccc4F)nc3C2)c1 [Example 127, 1-{2-[2-(2 5-Difluorophenyl)-2H 4H 5H 6H-pyrrolo[3,4-c]pyrazole-5-carbonyl]-4-(ethanesulfonyl)phenyl}-4 4-difluoropiperidine]",IC50,< 100 nM
"CCS(=O)(=O)c1ccc(N2CCC(F)(F)CC2)c(C(=O)N2Cc3cn(-c4cc(C)ccc4F)nc3C2)c1 [Example 128, 1-[4-(Ethanesulfonyl)-2-[2-(2-fluoro-5-methylphenyl)-2H 4H 5H 6H-pyrrolo[3,4-c]pyrazole-5-carbonyl]phenyl]-4 4-difluoropiperidine]",IC50,< 100 nM
"CC(C)Oc1ccc(S(C)(=O)=O)cc1C(=O)N1Cc2cn(-c3cc(F)ccc3F)nc2C1 [Example 129, 2-(2 5-Difluorophenyl)-5-[5-methanesulfonyl-2-(propan-2-yloxy)benzoyl]-2H 4H 5H 6H-pyrrolo[3,4-c]pyrazole]",IC50,< 100 nM
"Cc1ccc(F)c(-n2cc3c(n2)CN(C(=O)c2cc(S(C)(=O)=O)ccc2OC(C)C)C3)c1 [Example 130, 2-(2-Fluoro-5-methylphenyl)-5-[5-methanesulfonyl-2-(propan-2-yloxy)benzoyl]-2H 4H 5H 6H-pyrrolo[3,4-c]pyrazole]",IC50,< 100 nM
"CCc1cc(-n2cc3c(n2)CN(C(=O)c2cc(S(C)(=O)=O)ccc2N2CCC(F)(F)CC2)C3)ccn1 [Example 131, 4-{5-[2-(4 4-Difluoropiperidin-1-yl)-5-methanesulfonylbenzoyl]-2H 4H 5H 6H-pyrrolo[3,4-c]pyrazol-2-yl}-2-ethylpyridine]",IC50,< 100 nM
"CCc1cc(-n2cc3c(n2)CN(C(=O)c2cc(S(=O)(=O)CC)ccc2N2CCC(F)(F)CC2)C3)ccn1 [Example 132, 4-{5-[2-(4 4-Difluoropiperidin-1-yl)-5-(ethanesulfonyl)benzoyl]-2H 4H 5H 6H-pyrrolo[3,4-c]pyrazol-2-yl}-2-ethylpyridine]",IC50,< 100 nM
"CCc1cc(-n2cc3c(n2)CN(C(=O)c2cc(S(C)(=O)=O)ccc2O[C@@H](C)C(F)(F)F)C3)ccn1 [Example 133, 2-Ethyl-4-[5-(5-methanesulfonyl-2-{[(2S)-1 1 1-trifluoropropan-2-yl]oxy}benzoyl)-2H 4H 5H 6H-pyrrolo[3,4-c]pyrazol-2-yl]pyridine]",IC50,< 100 nM
"CCc1cc(-n2cc3c(n2)CN(C(=O)c2cc(S(=O)(=O)CC)ccc2O[C@@H](C)C(F)(F)F)C3)ccn1 [Example 134, 4-{5-[5-(Ethanesulfonyl)-2-{[(2S)-1 1 1-trifluoropropan-2-yl]oxy}benzoyl]-2H 4H 5H 6H-pyrrolo[3,4-c]pyrazol-2-yl}-2-ethylpyridine]",IC50,< 100 nM
"CCS(=O)(=O)c1ccc(N2CCC(F)(F)CC2)c(C(=O)N2Cc3cn(-c4ccc(F)cn4)nc3C2)c1 [Example 135, 2-{5-[2-(4 4-Difluoropiperidin-1-yl)-5-(ethanesulfonyl)benzoyl]-2H 4H 5H 6H-pyrrolo[3,4-c]pyrazol-2-yl}-5-fluoropyridine]",IC50,< 100 nM
"Cc1ccc(F)c(-n2cc3c(n2)CN(C(=O)c2cc(S(C)(=O)=O)ccc2OCC2CC2)C3)c1 [Example 136, 5-[2-(Cyclopropylmethoxy)-5-methanesulfonylbenzoyl]-2-(2-fluoro-5-methylphenyl)-2H 4H 5H 6H-pyrrolo[3,4-c]pyrazole]",IC50,< 100 nM
"CS(=O)(=O)c1ccc(OCC2CC2)c(C(=O)N2Cc3cn(-c4cc(F)ccc4F)nc3C2)c1 [Example 137, 5-[2-(Cyclopropylmethoxy)-5-methanesulfonylbenzoyl]-2-(2 5-difluorophenyl)-2H 4H 5H 6H-pyrrolo[3,4-c]pyrazole]",IC50,< 100 nM
"CS(=O)(=O)c1ccc(OCC2CC2)c(C(=O)N2Cc3cn(-c4cccc(C(F)(F)F)c4F)nc3C2)c1 [Example 138, 5-[2-(Cyclopropylmethoxy)-5-methanesulfonylbenzoyl]-2-[2-fluoro-3-(trifluoromethyl)phenyl]-2H 4H 5H 6H-pyrrolo[3,4-c]pyrazole]",IC50,< 100 nM
"Cc1cccc(-n2cc3c(n2)CN(C(=O)c2cc(S(C)(=O)=O)ccc2OCC2CC2)C3)c1F [Example 139, 5-[2-(Cyclopropylmethoxy)-5-methanesulfonylbenzoyl]-2-(2-fluoro-3-methylphenyl)-2H 4H 5H 6H-pyrrolo[3,4-c]pyrazole]",IC50,< 100 nM
"Cc1cccc(-n2cc3c(n2)CN(C(=O)c2cc(S(C)(=O)=O)ccc2OCC2CC2)C3)c1 [Example 140, 5-[2-(Cyclopropylmethoxy)-5-methanesulfonylbenzoyl]-2-(3-methylphenyl)-2H 4H 5H 6H-pyrrolo[3,4-c]pyrazole]",IC50,< 100 nM
"CS(=O)(=O)c1ccc(-c2cccc(F)c2)c(C(=O)N2Cc3cn(-c4cccnc4)nc3C2)c1 [Example 141, 3-{5-[2-(3-Fluorophenyl)-5-methanesulfonylbenzoyl]-2H 4H 5H 6H-pyrrolo[3,4-c]pyrazol-2-yl}pyridine]",IC50,< 100 nM
"CS(=O)(=O)c1ccc(-c2cccc(F)c2)c(C(=O)N2Cc3cn(-c4ccncc4)nc3C2)c1 [Example 142, 4-{5-[2-(3-Fluorophenyl)-5-methanesulfonylbenzoyl]-2H 4H 5H 6H-pyrrolo[3,4-c]pyrazol-2-yl}pyridine]",IC50,< 100 nM
"CCc1cc(-n2cc3c(n2)CN(C(=O)c2cc(S(C)(=O)=O)ccc2-c2cccc(F)c2)C3)ccn1 [Example 143, 2-Ethyl-4-{5-[2-(3-fluorophenyl)-5-methanesulfonylbenzoyl]-2H 4H 5H 6H-pyrrolo[3,4-c]pyrazol-2-yl}pyridine]",IC50,< 100 nM
"C[C@H](Oc1ccc(S(=O)(=O)CC2CC2)cc1C(=O)N1Cc2cn(-c3ccccc3)nc2C1)C(F)(F)F [Example 144, 5-(5-Cyclopropylmethanesulfonyl-2-{[(2S)-1 1 1-trifluoropropan-2-yl]oxy}benzoyl)-2-phenyl-2H 4H 5H 6H-pyrrolo[3,4-c]pyrazole]",IC50,> 10000 nM
"Cc1cccc(-n2cc3c(n2)CN(C(=O)c2cc(S(=O)(=O)CC4CC4)ccc2O[C@@H](C)C(F)(F)F)C3)c1 [Example 145, 5-(5-Cyclopropylmethanesulfonyl-2-{[(2S)-1 1 1-trifluoropropan-2-yl]oxy}benzoyl)-2-(3-methylphenyl)-2H 4H 5H 6H-pyrrolo[3,4-c]pyrazole]",IC50,1000 to 10000 nM
"C[C@H](Oc1ccc(S(C)(=O)=O)cc1C(=O)N1Cc2cn(-c3cccc(Cl)c3F)nc2C1)C(F)(F)F [Example 146, 2-(3-Chloro-2-fluorophenyl)-5-(5-methanesulfonyl-2-{[(2S)-1 1 1-trifluoropropan-2-yl]oxy}benzoyl)-2H 4H 5H 6H-pyrrolo[3,4-c]pyrazole]",IC50,< 100 nM

# — patent US9708334B2, “Substituted 2,4,5,6-tetrahydropyrrolo[3,4-c]pyrazole and 4,5,6,7-tetrahydro-2H-pyrazolo[4,3-c]pyridine compounds as GlyT1 inhibitors” (DART NEUROSCIENCE (CAYMAN) LTD., priority 2014, dated 2017)
